Laboratory results reported in PubChem BioAssay AID256 (DTP/NCI, 2004).
Where “and” joins values, the source holds several entries; their conditions need not be identical. Equal values may be shown once. Inconclusive results and toxic doses are left out.

Tested on: CD2F1 mice, L1210 leukemia ip, survival T/C
Test: NCI In Vivo Anticancer Drug Screen. Data for tumor model L1210 Leukemia (intraperitoneal) in CD2F1 (CDF1) mice
Settings: higher = longer survival
How it was run: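 Implant tumor; dose compound or vehicle; measure endpoint in both groups; report treated divided by control.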

[1] = endpoint: mean survival time, dose: 100.0 mg/kg/injection, schedule: Q04DX003 (ip), vehicle: saline with Tween-80
[2] = endpoint: mean survival time, dose: 200.0 mg/kg/injection, schedule: Q04DX003 (ip), vehicle: saline with Tween-80
[3] = endpoint: mean survival time, dose: 400.0 mg/kg/injection, schedule: Q04DX003 (ip), vehicle: saline with Tween-80
[4] = endpoint: mean survival time, dose: 100.0 mg/kg/injection, schedule: Q04DX003 (ip), vehicle: saline
[5] = endpoint: mean survival time, dose: 200.0 mg/kg/injection, schedule: Q04DX003 (ip), vehicle: saline
[6] = endpoint: mean survival time, dose: 100.0 mg/kg/injection, schedule: Q01DX001 (ip), vehicle: saline with Tween-80
[7] = endpoint: mean survival time, dose: 200.0 mg/kg/injection, schedule: Q01DX001 (ip), vehicle: saline with Tween-80
[8] = endpoint: mean survival time, dose: 400.0 mg/kg/injection, schedule: Q01DX001 (ip), vehicle: saline with Tween-80
[9] = endpoint: mean survival time, dose: 100.0 mg/kg/injection, schedule: Q01DX009 (ip), vehicle: other
[10] = endpoint: mean survival time, dose: 200.0 mg/kg/injection, schedule: Q01DX009 (ip), vehicle: other
[11] = endpoint: mean survival time, dose: 400.0 mg/kg/injection, schedule: Q01DX009 (ip), vehicle: other
[12] = endpoint: mean survival time, dose: 25.0 mg/kg/injection, schedule: Q04DX003 (ip), vehicle: saline with Tween-80
[13] = endpoint: mean survival time, dose: 50.0 mg/kg/injection, schedule: Q04DX003 (ip), vehicle: saline with Tween-80

CC(=O)OCC1OC(N=C=S)C(OC(C)=O)C(OC(C)=O)C1OC(C)=O (configuration not stated)
T/C (endpoint: mean survival time, dose: 50.0 mg/kg/injection, schedule: Q01DX009 (ip), vehicle: saline with Tween-80): 115 % of control

O=c1[nH]c(-c2ccccc2)nc(Cc2ccccc2)c1CCO
T/C [1]: 89 % of control
T/C [2]: 89 % of control
T/C [3]: 91 % of control

COCCC1(CN2c3ccccc3Sc3ccc(Cl)cc32)CCN(C)C1 (configuration not stated)
T/C [4]: 102 % of control
T/C [5]: 105 % of control

CCCCCCCCCCCC(=O)NC1CC(O[C@H]2C[C@](O)(C(=O)CO)Cc3c(O)c4c(c(O)c32)C(=O)c2c(OC)cccc2C4=O)OC(C)C1O (some centres not stated)
T/C (endpoint: mean survival time, dose: 1.5 mg/kg/injection, schedule: Q01DX009 (ip), vehicle: saline with Tween-80): 108 % of control
T/C (endpoint: mean survival time, dose: 1.5 mg/kg/injection, schedule: Q01DX009 (ip), vehicle: saline): 104 % of control
T/C (endpoint: mean survival time, dose: 3.0 mg/kg/injection, schedule: Q01DX009 (ip), vehicle: saline with Tween-80): 98 % of control
T/C (endpoint: mean survival time, dose: 3.0 mg/kg/injection, schedule: Q01DX009 (ip), vehicle: saline): 113 % of control
T/C (endpoint: mean survival time, dose: 6.0 mg/kg/injection, schedule: Q01DX009 (ip), vehicle: saline with Tween-80): 105 % of control
T/C (endpoint: mean survival time, dose: 6.0 mg/kg/injection, schedule: Q01DX009 (ip), vehicle: saline): 113 % of control
T/C (endpoint: mean survival time, dose: 6.25 mg/kg/injection, schedule: Q01DX009 (ip), vehicle: distilled water + Tween-80): 105 % of control
T/C (endpoint: mean survival time, dose: 12.0 mg/kg/injection, schedule: Q01DX009 (ip), vehicle: saline with Tween-80): 107 % of control
T/C (endpoint: mean survival time, dose: 12.5 mg/kg/injection, schedule: Q01DX009 (ip), vehicle: distilled water + Tween-80): 105 % of control
T/C (endpoint: mean survival time, dose: 24.0 mg/kg/injection, schedule: Q01DX009 (ip), vehicle: saline with Tween-80): 112 % of control
T/C (endpoint: mean survival time, dose: 24.0 mg/kg/injection, schedule: Q01DX009 (ip), vehicle: saline): 116 % of control
T/C (endpoint: mean survival time, dose: 25.0 mg/kg/injection, schedule: Q01DX009 (ip), vehicle: distilled water + Tween-80): 112 % of control
T/C (endpoint: mean survival time, dose: 48.0 mg/kg/injection, schedule: Q01DX009 (ip), vehicle: saline with Tween-80): 97 % of control
T/C (endpoint: mean survival time, dose: 50.0 mg/kg/injection, schedule: Q01DX009 (ip), vehicle: distilled water + Tween-80): 116 % of control

CC(=Nc1ccccc1)c1cccs1
T/C [1]: 95 % of control
T/C [2]: 101 % of control
T/C [3]: 87 % of control

Cc1ccc(S(=O)(=O)OCC2CC=CCC2COS(=O)(=O)c2ccc(C)cc2)cc1 (configuration not stated)
T/C (endpoint: mean survival time, dose: 50.0 mg/kg/injection, schedule: Q04DX003 (ip), vehicle: saline): 102 % of control
T/C [4]: 96 % of control
T/C [5]: 91 % of control

Cc1cc(NC(=S)SCc2ccc3c(c2)OCO3)ccc1Cl
T/C (endpoint: median survival time, dose: 12.5 mg/kg/injection, schedule: Q01DX009 (ip), vehicle: Klucel (hydroxypropylcellulose) (HPC)): 108 % of control
T/C (endpoint: median survival time, dose: 25.0 mg/kg/injection, schedule: Q01DX009 (ip), vehicle: Klucel (hydroxypropylcellulose) (HPC)): 100 % of control and 106 % of control and 110 % of control
T/C (endpoint: median survival time, dose: 50.0 mg/kg/injection, schedule: Q01DX009 (ip), vehicle: Klucel (hydroxypropylcellulose) (HPC)): 112 % of control and 113 % of control and 106 % of control
T/C (endpoint: median survival time, dose: 100.0 mg/kg/injection, schedule: Q01DX009 (ip), vehicle: Klucel (hydroxypropylcellulose) (HPC)): 114 % of control
T/C (endpoint: median survival time, dose: 200.0 mg/kg/injection, schedule: Q01DX009 (ip), vehicle: Klucel (hydroxypropylcellulose) (HPC)): 120 % of control

CC(=O)c1cccc(N=C(N)N)c1
T/C (endpoint: mean survival time, dose: 75.0 mg/kg/injection, schedule: Q01DX001 (ip), vehicle: saline with Tween-80): 98 % of control
T/C (endpoint: mean survival time, dose: 150.0 mg/kg/injection, schedule: Q01DX001 (ip), vehicle: saline with Tween-80): 96 % of control
T/C (endpoint: mean survival time, dose: 300.0 mg/kg/injection, schedule: Q01DX001 (ip), vehicle: saline with Tween-80): 97 % of control

OCC1CCC(CO)CC1 (configuration not stated)
T/C (endpoint: mean survival time, dose: 6.25 mg/kg/injection, schedule: Q01DX009 (ip), vehicle: Klucel (hydroxypropylcellulose) (HPC)): 100 % of control
T/C (endpoint: mean survival time, dose: 12.5 mg/kg/injection, schedule: Q01DX009 (ip), vehicle: Klucel (hydroxypropylcellulose) (HPC)): 95 % of control
T/C (endpoint: mean survival time, dose: 25.0 mg/kg/injection, schedule: Q01DX009 (ip), vehicle: Klucel (hydroxypropylcellulose) (HPC)): 103 % of control

OCCN=Cc1c[nH]c2ccccc12
T/C [6]: 95 % of control
T/C [7]: 106 % of control
T/C [8]: 103 % of control

C[N+](C)(C)C1CCCC1O (configuration not stated)
T/C (endpoint: mean survival time, dose: 25.0 mg/kg/injection, schedule: Q04DX002 (ip), vehicle: saline with Tween-80): 98 % of control
T/C (endpoint: mean survival time, dose: 50.0 mg/kg/injection, schedule: Q04DX002 (ip), vehicle: saline with Tween-80): 98 % of control
T/C (endpoint: mean survival time, dose: 100.0 mg/kg/injection, schedule: Q04DX002 (ip), vehicle: saline with Tween-80): 95 % of control
T/C (endpoint: mean survival time, dose: 200.0 mg/kg/injection, schedule: Q04DX002 (ip), vehicle: saline with Tween-80): 95 % of control

COc1ccc(Nc2nc(N)nc3c2ncn3C2OC(CO)C(O)C2O)cc1 (configuration not stated)
T/C (endpoint: mean survival time, dose: 12.5 mg/kg/injection, schedule: Q01DX005 (ip), vehicle: distilled water + Tween-80): 96 % of control
T/C (endpoint: mean survival time, dose: 25.0 mg/kg/injection, schedule: Q01DX005 (ip), vehicle: distilled water + Tween-80): 98 % of control
T/C (endpoint: mean survival time, dose: 50.0 mg/kg/injection, schedule: Q01DX005 (ip), vehicle: distilled water + Tween-80): 104 % of control
T/C (endpoint: mean survival time, dose: 100.0 mg/kg/injection, schedule: Q01DX005 (ip), vehicle: distilled water + Tween-80): 111 % of control

Nc1ccc(C(O)(C(F)(F)F)C(F)(F)F)c(C(=O)O)c1
T/C [9]: 106 % of control
T/C [10]: 106 % of control
T/C [11]: 102 % of control

CC(=O)C(C)OS(C)(=O)=O (configuration not stated)
T/C [12]: 108 % of control
T/C [13]: 108 % of control
T/C [1]: 109 % of control
T/C [2]: 120 % of control

CCCCCCCCCCCSSCCCCCCCCCCC
T/C [9]: 101 % of control
T/C [10]: 100 % of control
T/C [11]: 111 % of control

NC1CCCCC1N.O=S(=O)([O-])c1cccc(S(=O)(=O)[O-])c1.[Pt+4]
T/C (endpoint: median survival time, dose: 6.25 mg/kg/injection, schedule: Q04DX003 (ip), vehicle: saline with Tween-80): 166 % of control
T/C (endpoint: median survival time, dose: 12.5 mg/kg/injection, schedule: Q04DX003 (ip), vehicle: saline with Tween-80): 237 % of control and 370 % of control
T/C (endpoint: median survival time, dose: 25.0 mg/kg/injection, schedule: Q04DX003 (ip), vehicle: saline with Tween-80): 296 % of control and 325 % of control

Nc1ncnc2nc(-c3ccc(C(=O)c4cccc([N+](=O)[O-])c4)cc3)[nH]c12
T/C (endpoint: mean survival time, dose: 100.0 mg/kg/injection, schedule: Q04DX003 (ip), vehicle: Klucel (hydroxypropylcellulose) (HPC)): 108 % of control
T/C (endpoint: mean survival time, dose: 200.0 mg/kg/injection, schedule: Q04DX003 (ip), vehicle: Klucel (hydroxypropylcellulose) (HPC)): 102 % of control
T/C (endpoint: mean survival time, dose: 400.0 mg/kg/injection, schedule: Q04DX003 (ip), vehicle: Klucel (hydroxypropylcellulose) (HPC)): 100 % of control

OCC1OC(O)C(O)C(O)C1O (configuration not stated)
T/C [4]: 103 % of control
T/C [5]: 98 % of control
T/C (endpoint: mean survival time, dose: 400.0 mg/kg/injection, schedule: Q04DX003 (ip), vehicle: saline): 98 % of control

CCCCCCCCCCCCCCCCCCNC(=O)Nc1ccc(CC)cc1
T/C (endpoint: mean survival time, dose: 100.0 mg/kg/injection, schedule: Q01DX009 (ip), vehicle: saline with Tween-80): 98 % of control
T/C [1]: 94 % of control
T/C (endpoint: mean survival time, dose: 200.0 mg/kg/injection, schedule: Q01DX009 (ip), vehicle: saline with Tween-80): 109 % of control
T/C [2]: 89 % of control
T/C (endpoint: mean survival time, dose: 400.0 mg/kg/injection, schedule: Q01DX009 (ip), vehicle: saline with Tween-80): 110 % of control
T/C [3]: 93 % of control

COc1ccc(C(=S)c2ccc(OC)cc2)cc1
T/C [6]: 101 % of control
T/C [7]: 96 % of control
T/C [8]: 101 % of control

CC1(C)N=C(N)N=C(N)N1c1cccc(/C=C/C=C/c2cccc([N+](=O)[O-])c2)c1
T/C [12]: 95 % of control
T/C [13]: 91 % of control
T/C [1]: 89 % of control

CC(C)C(Br)C(N)=O (configuration not stated)
T/C (endpoint: mean survival time, dose: 100.0 mg/kg/injection, schedule: Q01DX009 (ip), vehicle: saline sonified): 97 % of control
T/C (endpoint: mean survival time, dose: 200.0 mg/kg/injection, schedule: Q01DX009 (ip), vehicle: saline sonified): 89 % of control
T/C (endpoint: mean survival time, dose: 400.0 mg/kg/injection, schedule: Q01DX009 (ip), vehicle: saline sonified): 87 % of control
